Drawing on patent US10653688B2, “6-(6-membered heteroaryl and aryl)isoquinolin-3-yl carboxamides and preparation and use thereof” (Samumed, LLC, priority 2017, dated 2020), this text covers EC50 and inhibition for five compounds.

pEC50: −log10 of the molar value. Bounds are passed on as bounds.

The test system of test [1] is Wnt activity (SW480 colon carcinoma cells stably expressing the Sp5-Luc reporter gene). The experiment in a line: Wnt activity screening assay (Sp5-Luc reporter gene assay). It counts as cell-based, human. Conditions: Homo sapiens; for pEC50: 36 to 48 hours; for inhibition at 10 µM: read-out: percent inhibition at 10 μM (given for EC50 >10 μM), 10 μM. In outline:
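SW480 colon carcinoma cells stably carrying a lentiviral luciferase reporter driven by an Sp5 promoter with eight TCF/LEF sites, plated at 4,000 cells/well in DMEM with 1% FBS. Compound exposure for 36–48 h at 37 °C, then luminescence read. Signals normalized to DMSO; EC50 from four-parameter nonlinear fit.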
On the technique in general: A reporter such as luciferase makes a cellular process visible.

Test [2] concerns Cyclin D1 phosphorylation at Threonine 286 (pCcnD1) over total Cyclin D1 in SH-SY5Y cells. The experiment in a line: phosphoCcnD1 to total CcnD1 ratio (PTT) cell-based assay, western blot. As to conditions: Homo sapiens, 48 hours. The method, then: Representative compounds were screened using the cell-based assay procedure for the ratio of signal of Cyclin D1 phosphorylation at Threonine 286 (pCcnD1) over the signal of total Cyclin D1 (CcnD1) (abbreviated: phosphoCcnD1 to total CcnD1 ratio, or PTT) as described below.
SH-SY5Y cells (human neuroblastoma, Sigma, Saint-Louis, Mo.) were cultured in 1:1 DMEM/F-12 medium supplemented with 15% FBS, 1% non-essential amino acid, and 1% penicillin/streptomycin.
SH-SY5Y cells were seeded at 1.0×10^5 cells in 1 mL per well in a 24-well plate. After cell adherence was confirmed, DMSO-resuspended Samumed compounds were dispensed to eight wells as a serial dilution from 10 μM to 4.6 nM final concentration in medium, or at 1.1 μM to 4.6 nM with particularly potent compounds. Cells were exposed to Samumed compounds for 48 hours in a 37° C. incubator.
Wells of compound-treated cells were visually checked for cell death before being washed with 500 μL per well of 1×DPBS supplemented with phosphatase inhibitor diluted to 1×. Cells were then lysed with 90 μL 1×RIPA buffer supplemented with phosphatase and protease inhibitors (each diluted to a final 1×). After scraping, 60 μL of cell lysate from each sample was used to dilute 4×LDS (ThermoFisher, NP0007) and 20×XT reducing agent (Bio-Rad, 1610792), each diluted to 1× final. All samples were then denatured via boiling at 95° C. Denatured cell sample lysates were directly tested for pCcnD1 and total CcnD1 signal by Western blot techniques and analysis. Specifically, denatured lysates were directly transferred to NuPAGE™ 4-12% Bis-Tris Midi Protein Gels, 26-well gels (ThermoFisher, WG1403BOX). Gels were transferred to […] nitrocellulose membranes via iBlot™ Transfer Stack, nitrocellulose, regular size (ThermoFisher, IB301031). Membranes were blocked with 1×TBS, 5% milk (Bio-Rad, 1706404XTU) before being probed for overnight with either anti-pCcnD1 primary antibody (Cell Signaling Technology, 2978S) or anti-total CcnD1 primary antibody (Cell Signaling Technology, 3300S) diluted 1:500 in 1×TBS-0.05% Tween-20, 3% milk. After overnight incubation in primary antibodies, membranes were washed profusely with 1×TBS-0.05% Tween-20 and probed for 1 hour with secondary anti-rabbit/HRP conjugate (Cell Signaling Technology, 7074S) diluted 1:1000 in 1×TBS-0.05% Tween-20, 3% milk. After incubation in secondary antibody, membranes were washed with 1×TBS-0.05% Tween-20.
Probed and washed membranes were developed for pCcnD1 or total CcnD1 signal with SuperSignal™ West Femto Maximum Sensitivity Substrate (ThermoFisher, 34096) using the ChemoDoc-It^2 (UVP) and related GelDocIt imaging software. Blots were then stripped, blocked, stained with anti-β-actin/HRP conjugate antibody (Cell Signaling Technology, 5125S), developed, and imaged for housekeeping β-actin protein control as previously described. Densitometry was measured with ImageJ (NIH) and signal was used to plot, draw the curves fitting, and determine the EC50 values in GraphPad Prism for tested Samumed compounds.
For orientation: In western blotting, separated proteins are transferred to a membrane and probed.

Test [3] concerns IL-6 in human peripheral blood mononuclear cells (huPBMCs). As to the kind of experiment: IL-6 inhibition in LPS-stimulated human peripheral blood mononuclear cells (HTRF). As to conditions: Homo sapiens, PBMC; for pEC50: LPS 50 ng/mL, 22 hours, IL-6 HTRF; for inhibition at 10 µM: read-out: percent inhibition at 10 μM (given for EC50 >10 μM), LPS, IL-6, 10 μM. It counts as cell-based. Summed up:
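Fresh normal human PBMCs at 1×10e6 cells/mL in RPMI with 1% FBS received compound, then 50 ng/mL E. coli 0111:B4 LPS 2 h later, and were incubated a further 22 h at 37° C. IL-6 read by HTRF (665/620 nm ratio), normalized to DMSO; EC50 from 4-parameter fit.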
On the technique in general: Time-resolved FRET reads energy transfer from a long-lived donor to a nearby acceptor.

What is called pEC50 is the EC50 on a negative log10 scale, so that one unit is a factor of ten. In general, inhibition refers to the change of the read-out against control, counted positive when it falls. In the case of `O=C(CN1CCOCC1)Nc1cc2cc(-c3cccnc3)c(F)cc2cn1` [Compound 144, N-(7-Fluoro-6-(pyridin-3-yl)isoquinolin-3-yl)-2-morpholinoacetamide], the pEC50 in test [1] was below 5.00; in test [2], 6.53; in test [3] it was below 5.00. Further, the figures for the inhibition at 10 µM in test [1] and in test [3] were 23% and 9.4%, respectively.

As for `CN1CCN(CC(=O)Nc2cc3cc(-c4cccnc4)c(F)cc3cn2)CC1` [Compound 145, N-(7-Fluoro-6-(pyridin-3-yl)isoquinolin-3-yl)-2-(4-methylpiperazin-1-yl) acetamide], the pEC50 in test [1] is below 5.00; in test [2], 7.32; in test [3], below 5.00. Besides, the inhibition at 10 µM in test [1] was determined as 26.2%; in test [3], 5.9%.

As for `Cc1cncc(-c2ccc3cnc(NC(=O)CN4CCOCC4)cc3c2)c1` [Compound 146, N-(6-(5-Methylpyridin-3-yl)isoquinolin-3-yl)-2-morpholinoacetamide], the pEC50 was below 5.00 in test [1], 7.17 in test [2] and below 5.00 in test [3]. For the same compound, the inhibition at 10 µM in test [1] worked out at 38.5%; in test [3], 0%.

`COc1cncc(-c2ccc3cnc(NC(=O)CN4CCOCC4)cc3c2)c1` [Compound 147, N-(6-(5-Methoxypyridin-3-yl)isoquinolin-3-yl)-2-morpholinoacetamide]: the pEC50 in test [1] was below 5.00; in test [2], 6.44; in test [3], below 5.00. Moreover, the inhibition at 10 µM was 38.8% in test [1] and 14.7% in test [3].

Consider `[2H]C1([2H])OC([2H])([2H])C([2H])([2H])N(CC(=O)Nc2cc3cc(-c4cccnc4)ccc3cn2)C1([2H])[2H]` [Compound 151, 2-(Morpholino-d8)-N-(6-(pyridin-3-yl)isoquinolin-3-yl)acetamide], for which the pEC50 in test [1] was below 5.00; in test [2] it was 7.80; in test [3], below 5.00. Besides, the inhibition at 10 µM was determined as 10.7% in test [1] and 6% in test [3].
